Measured values taken from US20060100431A1, “Biologically active compounds” (Amura Therapeutics Limited, priority 2002, published 2006).
Like-named read-outs stand apart in the source and are kept apart here.

Key:
CPB2.8ΔCTE = biological target: T1, CPB2.8ΔCTE (Leishmania mexicana, UniProt P36400); assay: Leishmania mexicana cysteine protease B (CPB) peptidase activity assay (Ki); format: biochemical; settings: Ki, inhibitors of Leismania mexicana CPB protease
T1 construct: Wild-type recombinant CPB without the C-terminal extention (i.e. CPB2.8ΔCTE); Dr. Jeremy Mottram (Wellcome Centre for Molecular Parasitology, University of Glasgow)
Procedure, shortened: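 Recombinant CPB2.8ΔCTE (0.25 nM) was assayed in 100 mM sodium acetate pH 5.5 with 1 mM EDTA, 200 mM NaCl and 10 mM DTT at 25 °C, DMSO <1%, enzyme added to start. Rates were taken from continuous fluorescence slopes; apparent Ki was fitted assuming reversible, pure-competitive inhibition.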

Wild-type cruzipain = Wild-type cruzipain (Trypanosoma cruzi, UniProt P25779); assay: Trypanosoma cruzi cruzipain peptidase activity assay (Ki); format: biochemical
Procedure, shortened: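 Native cruzipain from T. cruzi Dm28 epimastigotes, 2.5 nM, in 100 mM sodium phosphate pH 6.75 with 1 mM EDTA and 10 mM L-cysteine, 25 °C, DMSO <1%. Rates taken from continuous fluorogenic substrate read; Ki by regression assuming reversible pure-competitive inhibition.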

[1] = read-out: Ki, inhibitors of cruzain and cruzipains

Wild-type cruzipain, sequence (P25779 whole entry): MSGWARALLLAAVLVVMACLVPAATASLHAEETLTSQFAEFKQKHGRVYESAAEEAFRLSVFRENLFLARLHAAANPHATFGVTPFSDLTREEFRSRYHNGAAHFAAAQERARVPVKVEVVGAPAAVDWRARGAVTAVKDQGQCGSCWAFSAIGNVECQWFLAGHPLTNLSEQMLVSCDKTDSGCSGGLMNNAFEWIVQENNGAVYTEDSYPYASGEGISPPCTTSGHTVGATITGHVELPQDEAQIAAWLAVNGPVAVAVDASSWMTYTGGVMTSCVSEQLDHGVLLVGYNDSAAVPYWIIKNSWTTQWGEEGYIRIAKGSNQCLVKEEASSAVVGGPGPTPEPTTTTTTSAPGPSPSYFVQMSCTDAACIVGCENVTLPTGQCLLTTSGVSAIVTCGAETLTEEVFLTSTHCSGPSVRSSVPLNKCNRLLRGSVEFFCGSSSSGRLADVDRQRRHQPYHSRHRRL
T1 sequence (P36400 126-343, stated change not applied): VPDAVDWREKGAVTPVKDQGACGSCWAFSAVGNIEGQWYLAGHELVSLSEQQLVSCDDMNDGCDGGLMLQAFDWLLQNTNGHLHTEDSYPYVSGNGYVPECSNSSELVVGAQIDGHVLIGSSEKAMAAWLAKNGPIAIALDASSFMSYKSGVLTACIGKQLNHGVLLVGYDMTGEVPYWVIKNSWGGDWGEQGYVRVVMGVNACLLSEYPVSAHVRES

Structure (SMILES) | Ki (CPB2.8ΔCTE) [µM] | Ki (Wild-type cruzipain; [1]) [µM] | Ki (Wild-type cruzipain) [µM]
CC(=O)N[C@@H](CCC(C)C)C(=O)N1CC(=O)[C@@H]2[C@H]1CCN2C(=O)[C@H](CC(C)C)NC(=O)c1ccc(N(C)C)cc1 [Example 214, (3aR,6aS)-N-{(1S)-1-[4-((2S)-2-Acetylamino-5-methyl-hexanoyl)-6-oxo-hexahydro-pyrrolo[3,2-b]pyrrole-1-carbonyl]-3-methyl-butyl}-4-dimethylamino-benzamide] | < 5 | < 5 | –
CC(C)C[C@H](NC(=O)c1ccc(C(C)(C)C)cc1)C(=O)N1CC[C@@H]2[C@H]1C(=O)CN2C(=O)c1ccccc1 [Example 1, (3aR,6aS)-N-[(1S)-1-(4-Benzoyl-6-oxo-hexahydro-pyrrolo[3,2-b]pyrrole-1-carbonyl)-3-methyl-butyl]-4-tert-butylbenzamide] | < 5 | – | < 5
CC(C)C[C@H](NC(=O)c1ccc(C(C)(C)C)cc1)C(=O)N1CC[C@@H]2[C@H]1C(=O)CN2C(=O)c1ccc(-n2cncn2)cc1 [Example 26, (3aR,6aS)-4-tert-Butyl-N-{(1S)-3-methyl-1-[6-oxo-4-(4-[1,2,4]triazol-1-yl-benzoyl)-hexahydro-pyrrolo[3,2-b]pyrrole-1-carbonyl]-butyl}-benzamide] | < 5 | < 5 | –
CC[C@H](C)[C@H](N)C(=O)N1CC(=O)[C@@H]2[C@H]1CCN2C(=O)[C@H](CC(C)C)NC(=O)c1ccc(N(C)C)cc1 [Example 209, (3aR,6aS)-N-{(1S)-1-[4-((2S,3S)-2-Amino-3-methyl-pentanoyl)-6-oxo-hexahydro-pyrrolo[3,2-b]pyrrole-1-carbonyl]-3-methyl-butyl}-4-dimethylamino-benzamide] | < 5 | < 5 | –
CC(C)CCC(=O)N1CC(=O)[C@@H]2[C@H]1CCN2C(=O)[C@H](CC(C)C)NC(=O)c1ccc(N(C)C)cc1 [Example 105, (3aR,6aS)-4-Dimethylamino-N-{(1S)-3-methyl-1-[4-(4-methyl-pentanoyl)-6-oxo-hexahydro-pyrrolo[3,2-b]pyrrole-1-carbonyl]-butyl}-benzamide] | < 5 | < 5 | –
CC(C)C[C@H](NC(=O)c1ccc(N(C)C)cc1)C(=O)N1CC[C@@H]2[C@H]1C(=O)CN2C(=O)CC1CC1 [Example 132, (3aR,6aS)-N-{(1S)-1-[4-(2-Cyclopropyl-acetyl)-6-oxo-hexahydro-pyrrolo[3,2-b]pyrrole-1-carbonyl]-3-methyl-butyl}-4-dimethylamino-benzamide] | < 5 | < 5 | –
CC(C)C[C@H](NC(=O)c1ccc(N(C)C)cc1)C(=O)N1CC[C@@H]2[C@H]1C(=O)CN2C(=O)N1CCOCC1 [Example 142, (3aR,6aS)-4-Dimethylamino-N-{(1S)-3-methyl-1-[4-(morpholin-4-carbonyl)-6-oxo-hexahydro-pyrrolo[3,2-b]pyrrole-1-carbonyl]-butyl}-benzamide] | < 5 | < 5 | –
CC(C)C[C@H](NC(=O)c1ccc(N(C)C)cc1)C(=O)N1CC[C@@H]2[C@H]1C(=O)CN2C(=O)c1ccoc1 [Example 97, (3aR,6aS)-4-Dimethylamino-N-{(1S)-1-[4-(furan-3-carbonyl)-6-oxo-hexahydro-pyrrolo[3,2-b]pyrrole-1-carbonyl]-3-methyl-butyl}-benzamide] | < 5 | < 5 | –
COc1ccc(C(=O)N2CC(=O)[C@@H]3[C@H]2CCN3C(=O)[C@H](CC(C)C)NC(=O)c2ccc(N(C)C)cc2)cc1 [Example 66, (3aR,6aS)-4-Dimethylamino-N-{(1S)-1-[4-(4-methoxy-benzoyl)-6-oxo-hexahydro-pyrrolo[3,2-b]pyrrole-1-carbonyl]-3-methyl-butyl}-benzamide] | < 5 | < 5 | –
CCCCCCC(=O)N1CC(=O)[C@@H]2[C@H]1CCN2C(=O)[C@H](CC(C)C)NC(=O)c1ccc(N(C)C)cc1 [Example 136, (3aR,6aS)-4-Dimethylamino-N-[(1S)-1-(4-heptanoyl-6-oxo-hexahydro-pyrrolo[3,2-b]pyrrole-1-carbonyl)-3-methyl-butyl]-benzamide] | < 5 | < 5 | –
CC(C)C[C@H](NC(=O)c1ccc(N(C)C)cc1)C(=O)N1CC[C@@H]2[C@H]1C(=O)CN2C(=O)[C@@H](N)CC(C)C [Example 150, (3aR,6aS)-N-{(1S)-1-[4-((2S)-2-Amino-4-methyl-pentanoyl)-6-oxo-hexahydro-pyrrolo[3,2-b]pyrrole-1-carbonyl]-3-methyl-butyl}-4-dimethylamino-benzamide] | < 5 | < 5 | –
CC(C)C[C@H](NC(=O)c1ccc(N(C)C)cc1)C(=O)N1CC[C@@H]2[C@H]1C(=O)CN2C(=O)c1ccc(N)cc1 [Example 50, (3aR,6aS)-N-{(1S)-1-[4-(4-Amino-benzoyl)-6-oxo-hexahydro-pyrrolo[3,2-b]pyrrole-1-carbonyl]-3-methyl-butyl}-4-dimethylamino-benzamide] | < 5 | < 5 | –
CC(C)C[C@H](NC(=O)c1ccc(N(C)C)cc1)C(=O)N1CC[C@@H]2[C@H]1C(=O)CN2C(=O)c1ccccc1S(C)(=O)=O [Example 42, (3aR,6aS)-4-Dimethylamino-N-{(1S)-1-[4-(2-methanesulfonyl-benzoyl)-6-oxo-hexahydro-pyrrolo[3,2-b]pyrrole-1-carbonyl]-3-methyl-butyl}-benzamide] | < 5 | < 5 | –
CC(C)C[C@H](NC(=O)c1ccc(N(C)C)cc1)C(=O)N1CC[C@@H]2[C@H]1C(=O)CN2C(=O)c1ccc(Oc2ccccc2)cc1 [Example 56, (3aR,6aS)-4-Dimethylamino-N-{(1S)-3-methyl-1-[6-oxo-4-(4-phenoxy-benzoyl)-hexahydro-pyrrolo[3,2-b]pyrrole-1-carbonyl]-butyl}-benzamide] | < 5 | < 5 | –
CC(C)C[C@H](NC(=O)c1ccc(N(C)C)cc1)C(=O)N1CC[C@@H]2[C@H]1C(=O)CN2C(=O)c1cccnc1 [Example 21, (3aR,6aS)-4-Dimethylamino-N-{(1S)-3-methyl-1-[6-oxo-4-(pyridine-3-carbonyl)-hexahydro-pyrrolo[3,2-b]pyrrole-1-carbonyl]-butyl}-benzamide] | < 5 | < 5 | –
CN[C@@H](CC(C)C)C(=O)N1CC(=O)[C@@H]2[C@H]1CCN2C(=O)[C@H](CC(C)C)NC(=O)c1ccc(N(C)C)cc1 [Example 220, (3aR,6aS)-4-Dimethylamino-N-{(1S)-3-methyl-1-[4-((2S)-4-methyl-2-methylamino-pentanoyl)-6-oxo-hexahydro-pyrrolo[3,2-b]pyrrole-1-carbonyl]-butyl}-benzamide] | < 5 | < 5 | –
